{"source": "patent US7816374B2", "about": "“Method of treating neutrophil-related diseases with topical anesthetics” (Mayo Foundation for Medical Education and Research, priority 2000, dated 2010)", "key": {"neutrophils [1]": {"system": "neutrophils", "assay": "Neutrophil extracellular superoxide production (cytochrome c reduction plate assay)", "format": "cell-based, human", "conditions": "for stimulation of neutrophils to release extracellular superoxide: stimulus screen, G-CSF 5 ug/mL, IFN-γ 100 ng/mL, 1 ug/mL, IL-8 0.5, 1 and 10 ng/mL, LTB4 100 nM and 1 uM", "procedure": "Neutrophils were purified from heparinized venous blood of normal volunteers by sedimentation through a cushion of 1.085 gm/ml Percoll made in PIPES buffer, pH 7.4, supplemented with 50 mM NaCl, 5 mM KCl, 25 mM NaOH, and 5.4 mM glucose) and centrifuged at 2,000 rmp in a Beckman CS-6KR centrifuge for 30 minutes with no brake. Plasma, mononuclear cells, and Percoll layers were removed and the erythrocytes were lysed by osmotic shock.\nThe superoxide production was measured using cytochrome c reduction in a plate assay at a concentration of 50,000 neutrophils/well and was done in duplicate.\n(§1) Neutrophils were isolated in a Percoll gradient to remove PBMC.\nThe extracellular superoxide assay (Cytochrome C method) was performed as follows: 1) The wells of a 96-well plate were blocked with 50 ul of 1% HSA for at least 2 hours at 37° C. 2) The Cytochrome C mix (#C-2506, Sigma, St. Louis, Mo.) was prepared as follows: 2.4 mgs of Cytochrome C was resuspended in 1 mL HBSS/HEPES (pH 7.4). One mL of CytoC mix was required for every 0.5×10^6 cells used in the assay. 3) The blocked cells of the 96 well plate were washed twice with 200 μL saline. 4) 4× stimulus and inhibitor stocks were prepared HBSS/HEPES. The cells were resuspended in CytoC mix to 0.5×10^6 cells/mL and kept on ice until ready for use. 5) The final volume in all wells was 200 μL: 100 μl cell/CytoC mix suspension per well (0.05×10^6 cells/well); 50 μL stimulus (if present) per well and 50 μL inhibitor (if present) per well. If stimulus and/or inhibitor was not required for a well, the volume was made up with HBSS/HEPES so that the total volume in the well was 200 μL. 6) Stimuli, inhibitors and cells were added to the wells in the following order: 1) media filler; 2) inhibitors; 3) cells; and 4) stimuli. 7) The 96 well plate was placed in a ThermoMax plate reader and the OD550 was read at 37° C. The plate was read at time 0 and then every 10 minutes for 1 hour, then every 30 minutes for 3 hours. 8) The concentration of superoxide released was calculated by using the following formula to calculate the nmol of Cytochrome C reduced: 19.1*[OD550(time x)−OD550(time 0)]/0.05=nmol Cytochrome C reduced per 1×10^6 cells=nmol superoxide released per 1×10^6 cells."}, "[2]": {"assay": "Case report of patient with bronchitis treated with lidocaine inhalation", "format": "in vivo, human", "procedure": "The patient was a person first seen in 1996 with a six month history of harsh cough affecting their both during the night and the day. Copious (about 50 ml per day), thick, yellow to white sputum was produced. They were often awakened at night with chest heaviness and dyspnea. […] When initially evaluated, the patient was receiving prednisone, 30 mg every other day, Salmeterol twice daily and Asthmacort four inhalations four times a day."}, "[3]": {"assay": "Clinical trial of nebulized lidocaine in severe asthma", "format": "in vivo, human", "conditions": "twenty patients with severe asthma; 100 mg nebulized lidocaine x4 qd"}, "[4]": {"conditions": "cited from earlier work"}, "neutrophils [5]": {"system": "neutrophils", "conditions": "in vitro, cited from earlier work"}, "sputum neutrophilia": {"system": "sputum neutrophilia", "assay": "Sputum cell counts before and after four weeks of nebulized lidocaine in patients with chronic protracted post-viral or post-irritant cough", "format": "in vivo, human", "design": "wbc before / wbc after / eos before / eos after: unit not given here", "procedure": "Yamamoto, C. et al., Chest 112:505-510 (1997); Peleman, R. A. et al., Eur. Resp. Journal 13:839-843 (1999); Gibson, P. G. et al., Thorax 44:693-699 (1989). Induction, collection, and processing of sputum is performed according to the method of Pin and Hargreave. Briefly, if the patient is unable to spontaneously produce a 5 cc sputum sample, sputum induction is performed using ultrasonically nebulized hypertonic saline administered in progressive 2 minute increments followed by attempts to cough and produce sputum. The nebulization continues until a total of 12 minutes have elapsed or the patient produces 5 cc of sputum. The initial specimen is collected in a 50 ml conical tube, vortexed and 1 cc of the sputum is aspirated and placed on ice for cytokine analysis. The remaining volume is weighed, and mixed with equal volumes of dithiothreitol, vortexed, then rocked for 15 min at 37° C. with frequent vortexing. The specimen is analyzed for total and differential cell counting."}, "[6]": {"assay": "Serum concentration after lidocaine nebulization (PARI II device)", "format": "in vivo, human", "conditions": "nebulization of up to 375 mg over 10 minutes; four normal subjects and four asthma patients; >1 μg/ml in only one patient out of eight", "from_the_text": "Scott, D. B. et al., Br J Anaesth. 48:899-902 (1976); Chinn, W. M. et al., Chest 71:346-348 (1977)."}, "neutrophils [7]": {"system": "neutrophils", "assay": "Lactoferrin release from stimulated neutrophils (ELISA)", "format": "cell-based, human", "conditions": "FIG. 7", "procedure": "as §1\nTo measure lactoferrin, an ELSIA kit was purchased from Calbiochem (San Diego, Calif.) and the protocols and procedures were followed therein.\nWhen neutrophils begin to invade injured tissue, feedback control of inflammation begins with degranulation of neutrophils and massive release of lactoferrin. The amount of lactoferrin released from neutrophils stimulated with PMA, TNF-α and PAF was measured."}, "eosinophils": {"system": "eosinophils", "conditions": "in vitro; Okada et al. 1998; cited from earlier work"}, "[8]": {"assay": "Patient with inflammatory bowel disease-associated severe bronchitis treated with nebulized lidocaine", "format": "in vivo, human", "conditions": "nebulized lidocaine 100 mg four times daily; within six weeks; one patient", "procedure": "A patient with inflammatory bowel disease-associated severe bronchitis who had symptoms of copious sputum production (in excess of 150 mi/day), daily cough and chest tightness, and shortness of breath on exertion, who had not responded to topical or systemic glucocorticoids and multiple rounds of antibiotics over an 18 month period was treated. Lamos, J. et al., Arch Internationales De Pharmacodynamie et de Therapie 331:179-188 (1996)."}, "[9]": {"conditions": "six patients, after four weeks of nebulized lidocaine"}}, "note": "Values joined by “and” are separate entries in the source; they are usually repeats but may differ in a detail not shown here. Equal values may be shown once. “Also recorded” adds a separate entry of the source."}
{"molecule": "IFN-γ: interferon gamma", "values": [{"measurement": "stimulation of neutrophils to release extracellular superoxide", "setting": "neutrophils [1]", "value": "did not stimulate"}]}
{"molecule": "GM-CSF: granulocyte macrophage colony stimulating factor", "values": [{"measurement": "stimulation of neutrophils to release extracellular superoxide", "setting": "neutrophils [1]", "value": "stimulated"}]}
{"molecule": "IL-8: interleukin 8", "values": [{"measurement": "stimulation of neutrophils to release extracellular superoxide", "setting": "neutrophils [1]", "value": "did not stimulate"}]}
{"molecule": "TNF-α", "values": [{"measurement": "stimulation of neutrophils to release extracellular superoxide", "setting": "neutrophils [1]", "value": "stimulated; also recorded: considerable superoxide anion is released"}]}
{"molecule": "CCCCCCCCCCCCCC(=O)O[C@@H]1[C@@H](C)[C@@]2(O)[C@@H](C=C(CO)C[C@]3(O)C(=O)C(C)=C[C@@H]23)[C@@H]2C(C)(C)[C@]12OC(C)=O", "note": "[PMA, phorbol-myristate acetate]", "values": [{"measurement": "stimulation of neutrophils to release extracellular superoxide", "setting": "neutrophils [1]", "value": "stimulated; also recorded: stimulates superoxide anion very considerably"}]}
{"molecule": "CCN(CC)CC(=O)Nc1c(C)cccc1C", "note": "[lidocaine, (2-diethylamino)-N-(2,6-dimethylphenyl)acetamide]", "values": [{"measurement": "patient-reported course on continued therapy", "setting": "[2]; lidocaine by inhalation for the following year, occasional antibiotics", "value": "continued improvement"}, {"measurement": "sputum volume and cough", "setting": "[2]; lidocaine by inhalation, over a span of three weeks, one patient", "value": "diminished strikingly"}, {"measurement": "patients able to discontinue or reduce the use of oral GC by 80%", "setting": "[3]", "value": "seventeen"}, {"measurement": "side effects", "setting": "[3]", "value": "minimal side effects"}, {"measurement": "systemic glucocorticoid use in steroid-dependent asthma", "setting": "[4]; lidocaine inhalation, most adult and pediatric patients", "value": "reduces or eliminates systemic glucocorticoids"}, {"measurement": "topical glucocorticoid use in mild to moderate asthma", "setting": "[4]; nebulized lidocaine", "value": "able to replace topical glucocorticoids"}, {"measurement": "peripheral blood eosinophils when topical glucocorticoids were withdrawn", "setting": "[4]; nebulized lidocaine, mild to moderate asthma", "value": "prevented the rise"}, {"measurement": "activation of neutrophils by G-CSF, TNF-α and GM-CSF", "setting": "neutrophils [5]", "value": "inhibits activation"}, {"measurement": "neutrophil aggregation and degranulation", "setting": "neutrophils [5]", "value": "Inhibition"}, {"measurement": "depolarization of neutrophil membrane potential, superoxide generation and chemiluminescence response in neutrophils", "setting": "neutrophils [5]; concentration-dependent manner", "value": "inhibits"}, {"measurement": "cough", "setting": "sputum neutrophilia; [9]", "value": "clearing of their cough"}, {"measurement": "sputum neutrophils", "setting": "sputum neutrophilia; [9]", "value": "reduction of sputum neutrophils"}, {"measurement": "pmn after", "setting": "sputum neutrophilia; sputum PMN of individual patients after four weeks of nebulized lidocaine", "value": "568,400 and 352,000 and 617,760 and 79,900 and 1,612,800 and 551,200"}, {"measurement": "pmn before", "setting": "sputum neutrophilia; sputum PMN of individual patients before lidocaine treatment (baseline)", "value": "1,032,200 and 3,569,000 and 1,566,000 and 2,772,000 and 4,093,400 and 1,256,250"}, {"measurement": "wbc after", "setting": "sputum neutrophilia; sputum WBC of individual patients after four weeks of nebulized lidocaine", "value": "1,160,000 and 1,600,000 and 2,808,000 and 85,000 and 4,480,300 and 2,120,000"}, {"measurement": "wbc before", "setting": "sputum neutrophilia; sputum WBC of individual patients before lidocaine treatment (baseline)", "value": "3,330,000 and 6,050,000 and 2,700,000 and 4,760,000 and 2,512,500"}, {"measurement": "eos after", "setting": "sputum neutrophilia; sputum eosinophils of individual patients after four weeks of nebulized lidocaine", "value": "0 (2×) and 96,000 and 2,808 and 134,400 and 42,500"}, {"measurement": "eos before", "setting": "sputum neutrophilia; sputum eosinophils of individual patients before lidocaine treatment (baseline)", "value": "0 (3×) and 484,000 and 12,798 and 1,384,200"}, {"measurement": "serum concentration", "setting": "[6]", "value": 1500, "unit": "ng/mL"}, {"measurement": "lactoferrin release in PMA stimulated neutrophils", "setting": "neutrophils [7]; PMA stimulus", "value": "may have an effect"}, {"measurement": "lactoferrin release in neutrophils stimulated with TNF", "setting": "neutrophils [7]; TNF stimulus", "value": "significantly inhibits"}, {"measurement": "TNF-α stimulated neutrophil superoxide anion production", "setting": "neutrophils [1]; 3 mM lidocaine, TNF-alpha stimulus, 50,000 neutrophils/well", "value": "virtually totally suppresses; also recorded: almost totally inhibited"}, {"measurement": "C5a stimulated neutrophil superoxide anion production", "setting": "neutrophils [1]; C5a stimulus, FIGS. 6A and 6B", "value": "suppresses"}, {"measurement": "stimulation of neutrophils (extracellular superoxide) by stimuli", "setting": "neutrophils [1]; all stimuli with the exception of PMA", "value": "inhibits the stimulation of neutrophils in a dose dependent manner"}, {"measurement": "PMA induced neutrophil superoxide anion production", "setting": "neutrophils [1]; lidocaine, PMA stimulus", "value": "does not alter this production; also recorded: not inhibited"}, {"measurement": "superoxide anion production by unstimulated neutrophils", "setting": "neutrophils [1]; presence and absence of 3 mM lidocaine, no stimulus", "value": "no superoxide anion is produced"}, {"measurement": "cytokine-stimulated eosinophilopoesis and prolongation of survival, activation, respiratory burst, and degranulation of eosinophils", "setting": "eosinophils", "value": "inhibit"}, {"measurement": "cough and chest tightness", "setting": "[8]", "value": "disappeared"}, {"measurement": "sputum volume", "setting": "[8]", "value": "diminished to zero"}]}
{"molecule": "CCCCC/C=C\\C[C@@H](O)/C=C/C=C/C=C\\[C@@H](O)CCCC(=O)O", "note": "[LTB4, leukotriene B4]", "values": [{"measurement": "stimulation of neutrophils to release extracellular superoxide", "setting": "neutrophils [1]", "value": "did not stimulate"}]}
{"molecule": "f-met-leu-phe [fMLP]", "values": [{"measurement": "stimulation of neutrophils to release extracellular superoxide", "setting": "neutrophils [1]", "value": "stimulated"}]}
{"molecule": "G-CSF: granulocyte colony stimulating factor (protein, UniProt P09919 31-207, looked up) Granulocyte …: TPLGPASSLPQSFLLKCLEQVRKIQGDGAALQEKLVSECATYKLCHPEELVLLGHSLGIPWAPLSSCPSQALQLAGCLSQLHSGLFLYQGLLQALEGISPELGPTLDTLQLDVADFATTIWQQMEELGMAPALQPTQGAMPAFASAFQRRAGGVLVASHLQSFLEVSYRVLRHLAQP", "values": [{"measurement": "stimulation of neutrophils to release extracellular superoxide", "setting": "neutrophils [1]", "value": "did not stimulate"}]}
{"molecule": "C5a: component of the complement system (protein, UniProt P01031 678-751, looked up, C5a anaphylatoxin, component of the complement system) C5a anaphylatoxin: TLQKKIEEIAAKYKHSVVKKCCYDGACVNNDETCEQRAARISLGPRCIKAFTECCVVASQLRANISHKDMQLGR", "values": [{"measurement": "stimulation of neutrophils to release extracellular superoxide", "setting": "neutrophils [1]", "value": "stimulated; also recorded: stimulates superoxide anion production"}]}
